Where “and” joins values, the source holds several entries; their conditions need not be identical. Equal entries are not always repeated.
Tests used:
[1] = biological target: human PI3Kα (p110α/p85α) (Homo sapiens, UniProt P42336); assay: Inhibition of PI3Kα kinase activity, ADP-Glo Assay (Reaction Biology); type: biochemical; settings: 10 μM ATP; mean of two replicates; Table 12; read-out: Inhibition of kinase activity (as IC50) PICK
[2] = biological target: human DNA-PK (Homo sapiens, UniProt P78527); assay: Inhibition of DNA-PKcs kinase activity, HotSpot assay (Reaction Biology), [γ-33P]-ATP phosphorylation of peptide substrate; type: biochemical; settings: 10 μM ATP, 10 μg/ml DNA; mean of two replicates; Table 12; read-out: Inhibition of kinase activity (as IC50) DNA-PK (converted)
[3] = biological target: human mTOR (Homo sapiens, UniProt P42345); assay: Inhibition of mTOR kinase activity, HotSpot assay, phosphorylation of 4EPB1; settings: Inhibition of kinase activity (as IC50) mTOR (nM), 10 μM ATP; mean of two replicates; Table 12
[4] = tested on: UT-SCC-54C cells; assay: Radiosensitisation of UT-SCC-54C HNSCC cells, regrowth (sulforhodamine B) assay, oxic (Table 16); type: cell-based, human; settings: for IC50: Homo sapiens, read-out: IC50; for S50: compound in combination with 3 Gy of radiation, 50% inhibition of regrowth fraction, UT-SCC-54C; for S50 / radiosensitisation / differential growth inhibition of UT-SCC-54C cells: oxic; for radiosensitisation / differential growth inhibition of UT-SCC-54C cells: 0 or 3 Gy, regrowth assay
[5] = tested on: UT-SCC-54C cells; assay: Radiosensitisation of UT-SCC-54C HNSCC cells, clonogenic survival, oxic and anoxic (Table 18); type: cell-based, human; settings: for Plating efficiency drug/no drug: no radiation; for sensitisation of UT-SCC-54C cells selectively under anoxia: oxic vs anoxic, clonogenic survival, FIGS. 9 and 10

Chain of human PI3Kα (p110α/p85α) (P42336 whole entry): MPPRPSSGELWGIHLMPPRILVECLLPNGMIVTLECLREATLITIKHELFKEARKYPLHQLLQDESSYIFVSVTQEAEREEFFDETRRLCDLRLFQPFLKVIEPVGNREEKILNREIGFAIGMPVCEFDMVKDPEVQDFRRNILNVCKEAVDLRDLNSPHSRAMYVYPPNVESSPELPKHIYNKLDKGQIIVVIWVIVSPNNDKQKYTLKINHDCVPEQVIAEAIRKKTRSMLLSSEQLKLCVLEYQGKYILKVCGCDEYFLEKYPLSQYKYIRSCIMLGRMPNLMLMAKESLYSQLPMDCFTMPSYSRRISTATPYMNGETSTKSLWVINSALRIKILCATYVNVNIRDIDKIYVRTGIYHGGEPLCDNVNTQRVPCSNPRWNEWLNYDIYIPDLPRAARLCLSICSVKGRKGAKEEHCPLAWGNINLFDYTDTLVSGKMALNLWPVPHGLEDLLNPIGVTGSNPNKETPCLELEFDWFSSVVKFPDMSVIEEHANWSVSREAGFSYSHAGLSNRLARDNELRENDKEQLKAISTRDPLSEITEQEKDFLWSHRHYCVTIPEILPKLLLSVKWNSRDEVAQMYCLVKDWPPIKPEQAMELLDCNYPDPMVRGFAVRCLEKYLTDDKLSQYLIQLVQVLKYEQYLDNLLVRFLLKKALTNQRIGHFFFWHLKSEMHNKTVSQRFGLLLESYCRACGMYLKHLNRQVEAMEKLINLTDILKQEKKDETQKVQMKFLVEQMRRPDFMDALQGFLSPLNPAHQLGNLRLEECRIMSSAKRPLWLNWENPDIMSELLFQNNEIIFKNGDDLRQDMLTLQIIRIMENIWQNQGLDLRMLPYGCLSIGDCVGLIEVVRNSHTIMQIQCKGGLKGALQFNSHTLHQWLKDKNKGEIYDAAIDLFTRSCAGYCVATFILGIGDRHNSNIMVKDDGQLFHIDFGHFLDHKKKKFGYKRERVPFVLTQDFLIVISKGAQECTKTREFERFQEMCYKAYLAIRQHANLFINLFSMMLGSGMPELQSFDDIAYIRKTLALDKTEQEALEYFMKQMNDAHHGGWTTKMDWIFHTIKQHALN
Chain of human PI3Kα (p110α/p85α) (P27986 whole entry partner): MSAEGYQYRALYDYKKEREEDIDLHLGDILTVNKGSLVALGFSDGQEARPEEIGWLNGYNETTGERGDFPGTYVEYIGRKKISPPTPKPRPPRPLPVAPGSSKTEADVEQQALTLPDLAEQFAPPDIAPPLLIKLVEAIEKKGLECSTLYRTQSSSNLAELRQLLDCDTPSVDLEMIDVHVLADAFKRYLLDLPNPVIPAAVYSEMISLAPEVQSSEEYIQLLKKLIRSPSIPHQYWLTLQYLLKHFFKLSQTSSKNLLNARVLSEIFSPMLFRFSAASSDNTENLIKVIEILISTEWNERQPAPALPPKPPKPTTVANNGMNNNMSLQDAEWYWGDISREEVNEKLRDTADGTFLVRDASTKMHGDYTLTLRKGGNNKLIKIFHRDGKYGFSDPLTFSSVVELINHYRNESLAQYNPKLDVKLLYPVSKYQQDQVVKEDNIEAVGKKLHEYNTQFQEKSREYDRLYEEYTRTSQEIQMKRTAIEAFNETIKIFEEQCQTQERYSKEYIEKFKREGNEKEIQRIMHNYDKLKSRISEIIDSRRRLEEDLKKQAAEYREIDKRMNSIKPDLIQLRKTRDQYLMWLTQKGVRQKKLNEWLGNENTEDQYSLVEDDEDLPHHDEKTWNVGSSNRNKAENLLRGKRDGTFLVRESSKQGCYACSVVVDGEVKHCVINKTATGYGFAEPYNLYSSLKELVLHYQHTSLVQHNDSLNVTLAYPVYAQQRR

IC50 [1] | IC50 [2] [µM] | SMILES | IC50 [4] [µM] | S50 [4] [µM] | other results
 | 0.043 | Cn1c(=O)n(-c2ccc(C(C)(C)C#N)cc2)c2cc(Nc3ccc4nccnc4c3)ncc21 [Compound 214, 2-Methyl-2-(4-(3-methyl-2-oxo-6-(quinoxalin-6-ylamino)-2,3-dihydro-1H-imidazo[4,5-c]pyridin-1-yl)phenyl)propanenitrile] |  |  | 
9.36 µM | 0.441 | COc1ccc(Nc2cc3c(cn2)n(C)c(=O)n3C2CCOCC2)c(C)n1 [Compound 221, 6-((6-Methoxy-2-methylpyridin-3-yl)amino)-3-methyl-1-(tetrahydro-2H-pyran-4-yl)-1,3-dihydro-2H-imidazo[4,5-c]pyridin-2-one] |  |  | IC50 [3]: > 100000 nM
0.296 µM | 0.058 | COc1ccc(Nc2cc3c(cn2)n(C)c(=O)n3C2CCC(NC(=O)OCc3cnc([N+](=O)[O-])n3C)CC2)c(C)c1 (stereo not shown) [Compound 253, (1-Methyl-2-nitro-1H-imidazol-5-yl)methyl (4-(6-((4-methoxy-2-methylphenyl)amino)-3-methyl-2-oxo-2,3-dihydro-1H-imidazo[4,5-c]pyridin-1-yl)cyclohexyl)carbamate] |  |  | IC50 [3]: 11400 nM
20.8 µM | 0.27 | Cc1nc(Cl)ccc1Nc1cc2c(cn1)n(C)c(=O)n2C1CCOCC1 [Compound 219, 6-((6-Chloro-2-methylpyridin-3-yl)amino)-3-methyl-1-(tetrahydro-2H-pyran-4-yl)-1,3-dihydro-2H-imidazo[4,5-c]pyridin-2-one] |  |  | IC50 [3]: > 100000 nM
1.28 µM | 0.116 | COc1ccc(-n2c(=O)n(C)c3cnc(Nc4ccc(OCc5cnc([N+](=O)[O-])n5C)cc4C)cc32)cc1 [Compound 246, 1-(4-Methoxyphenyl)-3-methyl-6-((2-methyl-4-((1-methyl-2-nitro-1H-imidazol-5-yl)methoxy)phenyl)amino)-1,3-dihydro-2H-imidazo[4,5-c]pyridin-2-one] | > 10 | 6.08 | radiosensitisation / differential growth inhibition of UT-SCC-54C cells [4]: did not display any differential growth inhibition
0.803 µM | < 0.00051 | Cc1cc(Cl)ccc1Nc1cc2c(cn1)n(C)c(=O)n2-c1ccc(C(C)(C)C#N)cc1 [Compound 212, 2-(4-(6-((4-Chloro-2-methylphenyl)amino)-3-methyl-2-oxo-2,3-dihydro-1H-imidazo[4,5-c]pyridin-1-yl)phenyl)-2-methylpropanenitrile] | > 10 | 0.51 | 
1.8 µM | 0.023 | COc1ccc(-n2c(=O)n(C)c3cnc(Nc4ccc(S(C)(=O)=O)cc4C)cc32)cc1 [Compound 198, 1-(4-Methoxyphenyl)-3-methyl-6-((2-methyl-4-(methylsulfonyl)phenyl)amino)-1,3-dihydro-2H-imidazo[4,5-c]pyridin-2-one] | > 10 | 0.17 | 
 | 0.055 | COc1ccc(-n2c(=O)n(C)c3cnc(Nc4ccc(OCc5ccccc5)cc4C)cc32)cc1 [Compound 199, 6-((4-(Benzyloxy)-2-methylphenyl)amino)-1-(4-methoxyphenyl)-3-methyl-1,3-dihydro-2H-imidazo[4,5-c]pyridin-2-one] |  |  | 

The remaining lines, values behind:

SMILES | IC50 [1] | IC50 [2] [µM] | IC50 [4] [µM] | S50 [4] [µM] | other results
Cc1cc(Cl)ccc1N(C(=O)OCc1ccccc1)c1cc2c(cn1)n(C)c(=O)n2C1CCOCC1 [Compound 134, Benzyl (4-Chloro-2-methylphenyl)(3-methyl-2-oxo-1-(tetrahydro-2H-pyran-4-yl)-2,3-dihydro-1H-imidazo[4,5-c]pyridin-6-yl)carbamate] | > 10 µM | > 10 |  |  | 
Cc1cc(OCc2ccccc2)ccc1Nc1cc2c(cn1)n(C)c(=O)n2C1CCOCC1 [Compound 124, 6-((4-(Benzyloxy)-2-methylphenyl)amino)-3-methyl-1-(tetrahydro-2H-pyran-4-yl)-1,3-dihydro-2H-imidazo[4,5-c]pyridin-2-one] | 5.45 µM | 0.422 |  |  | 
COc1ccc(-n2c(=O)n(C)c3cnc(N(C(=O)OCc4cnc([N+](=O)[O-])n4C)c4ccc(OC)cc4C)cc32)cc1 [Compound 259, (1-Methyl-2-nitro-1H-imidazol-5-yl)methyl (4-methoxy-2-methylphenyl)(1-(4-methoxyphenyl)-3-methyl-2-oxo-2,3-dihydro-1H-imidazo[4,5-c]pyridin-6-yl)carbamate] |  |  | > 10 | >10 | radiosensitisation / differential growth inhibition of UT-SCC-54C cells [4]: did not display any differential growth inhibition
COCCn1c(=O)n(C)c2cnc(Nc3ccc(Cl)cc3C)cc21 [Compound 105, 6-((4-Chloro-2-methylphenyl)amino)-1-(2-methoxyethyl)-3-methyl-1,3-dihydro-2H-imidazo[4,5-c]pyridin-2-one] | 3.26 µM | 0.0121 |  |  | IC50 [3]: 71400 nM
COc1ccc(-n2c(=O)n(C)c3cnc(Nc4ccc(OC)cc4C)cc32)cc1 [Compound 195, 6-((4-Methoxy-2-methylphenyl)amino)-1-(4-methoxyphenyl)-3-methyl-1,3-dihydro-2H-imidazo[4,5-c]pyridin-2-one] |  |  |  |  | D1 (radiation dose for 1% surviving fraction) ([5]; 20% O2, compound conc 0.33 μM): 1.53 Gy; D10 (radiation dose for 10% surviving fraction) ([5]; 20% O2, compound conc 0.33 μM): 4.67 Gy; D1 (radiation dose for 1% surviving fraction) ([5]; 20% O2, compound conc 1 μM): 2.75 Gy; D10 (radiation dose for 10% surviving fraction) ([5]; 20% O2, compound conc 1 μM): 2.60 Gy; D1 (radiation dose for 1% surviving fraction) ([5]; 20% O2, compound conc 3 μM): 3.90 Gy; D10 (radiation dose for 10% surviving fraction) ([5]; 20% O2, compound conc 3 μM): 1.83 Gy; radiosensitisation, clonogenic survival endpoint ([5]; UT-SCC-54C, FIG. 8 and Table 18): concentration-dependent increases in radiosensitisation
COc1ccc(N(C(=O)OCc2ccccc2)c2cc3c(cn2)n(C)c(=O)n3C2CCN(C(=O)OC(C)(C)C)CC2)c(C)c1 [Compound 154, tert-Butyl 4-(6-(((Benzyloxy)carbonyl)(4-methoxy-2-methylphenyl)amino)-3-methyl-2-oxo-2,3-dihydro-1H-imidazo[4,5-c]pyridin-1-yl)piperidine-1-carboxylate] |  |  | > 10 | 2.06 | 
Cc1cc(Cl)ccc1Nc1cc2c(cn1)n(C)c(=O)n2C1CCOCC1 [Compound 122, 6-((4-Chloro-2-methylphenyl)amino)-3-methyl-1-(tetrahydro-2H-pyran-4-yl)-1,3-dihydro-2H-imidazo[4,5-c]pyridin-2-one] | 2.53 µM and 5.53 µM |  | > 10 | 0.38 | IC50 [3]: 46600 nM and 56100 nM
Cc1ccncc1Nc1cc2c(cn1)n(C)c(=O)n2C1CCCC1 [Compound 78, 1-Cyclopentyl-3-methyl-6-((4-methylpyridin-3-yl)amino)-1,3-dihydro-2H-imidazo[4,5-c]pyridin-2-one] |  |  | > 10 | 4.09 | 
Cc1cc(OC(C)c2cnc([N+](=O)[O-])n2C)ccc1Nc1cc2c(cn1)n(C)c(=O)n2C1CCOCC1 (stereo not shown) [Compound 238, 3-Methyl-6-((2-methyl-4-(1-(1-methyl-2-nitro-1H-imidazol-5-yl)ethoxy)phenyl)amino)-1-(tetrahydro-2H-pyran-4-yl)-1,3-dihydro-2H-imidazo[4,5-c]pyridin-2-one] |  |  | > 10 | >10 | radiosensitisation / differential growth inhibition of UT-SCC-54C cells [4]: did not display any differential growth inhibition; D1 (radiation dose for 1% surviving fraction) ([5]; 0% O2, compound conc 1 μM): 15.0 Gy; D10 (radiation dose for 10% surviving fraction) ([5]; 0% O2, compound conc 1 μM): 8.46 Gy; SER1 (sensitiser enhancement ratio at 1% surviving fraction) ([5]; 0% O2, compound conc 1 μM): 1.44; SER10 (sensitiser enhancement ratio at 10% surviving fraction) ([5]; 0% O2, compound conc 1 μM): 1.65; Plating efficiency drug/no drug ([5]; 0% O2, compound conc 1 μM): 1.02; sensitisation of UT-SCC-54C cells selectively under anoxia [5]: provide sensitisation of UT-SCC-54C cells selectively under anoxia
Cc1cc(OCc2ncc([N+](=O)[O-])n2C)ccc1Nc1cc2c(cn1)n(C)c(=O)n2C1CCOCC1 [Compound 240, 3-Methyl-6-((2-methyl-4-((1-methyl-5-nitro-1H-imidazol-2-yl)methoxy)phenyl)amino)-1-(tetrahydro-2H-pyran-4-yl)-1,3-dihydro-2H-imidazo[4,5-c]pyridin-2-one] |  |  | > 10 | >10 | radiosensitisation / differential growth inhibition of UT-SCC-54C cells [4]: did not display any differential growth inhibition
Cn1c(=O)n(C2CCCC2)c2cc(Nc3ccc4ncsc4c3)ncc21 [Compound 70, 6-(Benzo[d]thiazol-6-ylamino)-1-cyclopentyl-3-methyl-1,3-dihydro-2H-imidazo[4,5-c]pyridin-2-one] |  |  | > 10 | 2.62 | 
COc1ccc(N(C(=O)OC(C)c2cnc([N+](=O)[O-])n2C)c2cc3c(cn2)n(C)c(=O)n3C2CCOCC2)c(C)c1 (stereo not shown) [Compound 250, 1-(1-Methyl-2-nitro-1H-imidazol-5-yl)ethyl (4-methoxy-2-methylphenyl)(3-methyl-2-oxo-1-(tetrahydro-2H-pyran-4-yl)-2,3-dihydro-1H-imidazo[4,5-c]pyridin-6-yl)carbamate] |  |  | > 10 | >10 | radiosensitisation / differential growth inhibition of UT-SCC-54C cells [4]: did not display any differential growth inhibition; D1 (radiation dose for 1% surviving fraction) ([5]; 0% O2, compound conc 1 μM): 10.83 Gy; D10 (radiation dose for 10% surviving fraction) ([5]; 0% O2, compound conc 1 μM): 5.78 Gy; SER1 (sensitiser enhancement ratio at 1% surviving fraction) ([5]; 0% O2, compound conc 1 μM): 1.87; SER10 (sensitiser enhancement ratio at 10% surviving fraction) ([5]; 0% O2, compound conc 1 μM): 2.09; Plating efficiency drug/no drug ([5]; 0% O2, compound conc 1 μM): 0.98; sensitisation of UT-SCC-54C cells selectively under anoxia [5]: provide sensitisation of UT-SCC-54C cells selectively under anoxia
COc1ccc(-n2c(=O)n(C)c3cnc(Nc4ccc(Cl)cc4C)cc32)cc1 [Compound 196, 6-((4-Chloro-2-methylphenyl)amino)-1-(4-methoxyphenyl)-3-methyl-1,3-dihydro-2H-imidazo[4,5-c]pyridin-2-one] | 0.237 µM | 0.00027 | > 10 | 0.68 | 

Reference: patent publication US20230365559A1, “NOVEL AMINOPYRIDINES AND THEIR USE IN TREATING CANCER” (priority 2020, published 2023)
